Target: recombinant PI3K δ enzyme (Homo sapiens (Human), UniProt O00329)
Assay: In vitro enzyme assay (Kinase-Glo luminescent kinase assay), PI3Kδ
Format: biochemical
Description: The Kinase-Glo luminescent kinase assay kit (from Promega) was used to measure kinase activity. In this assay, amount of ATP remaining in solution following a kinase reaction is measured. The effect of compounds on PI3Kδ inhibition was carried out by adding 2.29 μg/ml of recombinant PI3K δ enzyme (Proteros, Germany) to reaction mixture containing assay buffer (50 mM HEPES, pH 7.4, 50 mM NaCl, 0.05% CHAPS) supplemented with 10 mM MgCl2, 5 mM DTT, 60 μM Phosphatidyl inositol bisphosphate (PIP2) and 10 μM ATP in the absence or presence of different concentrations of the compounds in a final volume of 15 μl/well, in a 384 well plate. The reaction mixture was incubated for 2 hours at room temperature. At the end of incubation period the equal volume of Kinase-Glo plus (Promega, V3772), was added per well and the luminescence was measured after incubating for 10 minutes at room temperature in dark. Results were calculated by measuring the luminescence units of test samples to blanks containing no enzyme.
The compounds of the present invention were tested for their selectivity for PI3Kδ over PI3Kα, PI3Kβ and PI3Kγ following the above assay using specific recombinant enzymes (Proteros, Germany) for each kinase. Assay condition of kinase assay (PI3Kα, PI3Kβ, PI3Kγ and PI3Kδ) was as follows. Enzyme: 2.29 μg/mL; ATP: 10 μM; PIP2 substrate: 60 μM and Reaction Time: 2 hours.

Sequence of recombinant PI3K δ enzyme (O00329 whole entry, species assumed): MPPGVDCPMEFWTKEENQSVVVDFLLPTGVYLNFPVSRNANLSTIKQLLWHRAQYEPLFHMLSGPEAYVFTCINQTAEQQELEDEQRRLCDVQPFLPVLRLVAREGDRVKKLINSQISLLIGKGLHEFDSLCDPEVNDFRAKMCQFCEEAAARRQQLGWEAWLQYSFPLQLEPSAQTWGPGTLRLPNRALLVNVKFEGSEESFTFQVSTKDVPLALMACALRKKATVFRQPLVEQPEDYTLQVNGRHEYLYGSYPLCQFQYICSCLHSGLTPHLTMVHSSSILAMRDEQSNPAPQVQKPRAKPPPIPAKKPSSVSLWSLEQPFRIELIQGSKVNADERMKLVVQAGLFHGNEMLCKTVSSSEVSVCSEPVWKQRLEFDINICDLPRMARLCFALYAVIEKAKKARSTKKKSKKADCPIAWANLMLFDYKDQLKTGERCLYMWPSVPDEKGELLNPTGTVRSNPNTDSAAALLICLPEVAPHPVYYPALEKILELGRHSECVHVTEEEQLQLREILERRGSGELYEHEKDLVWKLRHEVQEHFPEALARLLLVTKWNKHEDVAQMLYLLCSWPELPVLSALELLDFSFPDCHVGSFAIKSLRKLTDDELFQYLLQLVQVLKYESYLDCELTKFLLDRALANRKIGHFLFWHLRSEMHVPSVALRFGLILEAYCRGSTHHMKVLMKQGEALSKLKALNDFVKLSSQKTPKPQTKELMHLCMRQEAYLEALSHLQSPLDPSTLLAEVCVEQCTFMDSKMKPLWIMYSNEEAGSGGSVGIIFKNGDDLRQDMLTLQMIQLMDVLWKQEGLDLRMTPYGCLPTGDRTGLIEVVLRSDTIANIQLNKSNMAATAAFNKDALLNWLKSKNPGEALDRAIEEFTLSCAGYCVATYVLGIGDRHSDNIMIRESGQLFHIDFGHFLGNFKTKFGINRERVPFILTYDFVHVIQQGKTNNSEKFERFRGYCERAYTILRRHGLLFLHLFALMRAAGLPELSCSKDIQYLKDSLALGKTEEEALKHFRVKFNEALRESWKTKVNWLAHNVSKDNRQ
Sequence of recombinant PI3K δ enzyme (P27986 whole entry partner, species assumed): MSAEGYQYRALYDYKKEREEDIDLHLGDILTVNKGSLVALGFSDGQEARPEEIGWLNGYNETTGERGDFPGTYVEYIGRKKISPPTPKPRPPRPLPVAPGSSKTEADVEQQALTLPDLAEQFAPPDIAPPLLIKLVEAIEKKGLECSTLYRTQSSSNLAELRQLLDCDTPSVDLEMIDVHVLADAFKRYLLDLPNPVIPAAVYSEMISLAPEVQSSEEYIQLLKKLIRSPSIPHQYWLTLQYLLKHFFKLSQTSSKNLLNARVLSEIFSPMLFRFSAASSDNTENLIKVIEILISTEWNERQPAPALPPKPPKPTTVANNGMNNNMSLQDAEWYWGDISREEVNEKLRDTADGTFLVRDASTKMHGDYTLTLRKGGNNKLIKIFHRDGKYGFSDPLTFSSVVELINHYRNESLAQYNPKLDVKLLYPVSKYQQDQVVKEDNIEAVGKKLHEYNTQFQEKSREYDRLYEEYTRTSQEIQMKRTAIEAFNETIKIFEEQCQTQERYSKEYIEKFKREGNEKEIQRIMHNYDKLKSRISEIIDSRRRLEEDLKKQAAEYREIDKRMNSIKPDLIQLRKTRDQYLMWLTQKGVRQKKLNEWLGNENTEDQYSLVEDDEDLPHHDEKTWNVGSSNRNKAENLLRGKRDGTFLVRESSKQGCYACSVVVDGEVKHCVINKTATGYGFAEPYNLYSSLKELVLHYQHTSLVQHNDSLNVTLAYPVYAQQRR

SMILES | IC50 [nM]
Cn1cc(-c2nc(N3CCOCC3)c3nc(C(=O)N4CCN(C5CCOCC5)CC4)[nH]c3n2)cn1 [compound 11, [2-(1-Methyl-1H-pyrazol-4-yl)-6-(morpholin-4-yl)-9H-purin-8-yl][4-(tetrahydro-2H-pyran-4-yl)piperazin-1-yl]methanone] | 26
Cn1cc(-c2nc(N3CCOCC3)c3nc(C(=O)N4CCN(c5ccccc5)CC4)[nH]c3n2)cn1 [compound 32, [2-(1-Methyl-1H-pyrazol-4-yl)-6-(morpholin-4-yl)-9H-purin-8-yl](4-phenylpiperazin-1-yl)methanone] | 56
C[C@@H]1CN(C2CN(C(=O)c3nc4c(N5CCOCC5)cc(-c5cnn(C)c5)nc4[nH]3)C2)C[C@H](C)O1 [Compound No. 119, {3-[(2R,6S)-2,6-dimethylmorpholin-4-yl]azetidin-1-yl}[5-(1-methyl-1H-pyrazol-4-yl)-7-(morpholin-4-yl)-3H-imidazo[4,5-b]pyridin-2-yl]methanone] | 5
Cn1cc(-c2nc(N3CCOCC3)c3nc(C(=O)N4CCC(c5ccccc5)CC4)[nH]c3n2)cn1 [compound 35, [2-(1-Methyl-1H-pyrazol-4-yl)-6-(morpholin-4-yl)-9H-purin-8-yl](4-phenylpiperidin-1-yl)methanone] | 17
CN1CCN(C2CN(C(=O)c3nc4c(N5CCOCC5)nc(-c5cnn(C)c5)nc4[nH]3)C2)CC1=O [Compound No. 130, 1-Methyl-4-(1-{[2-(1-methyl-1H-pyrazol-4-yl)-6-(morpholin-4-yl)-9H-purin-8-yl]carbonyl}azetidin-3-yl)piperazin-2-one] | 10

Now from value to compound:

IC50 [nM] | SMILES
202 | Cc1c(-c2nc3[nH]c(C(=O)N4CCC(N5CCOCC5)CC4)nc3c(N3CCOCC3)c2F)cnn1C [compound 95, [5-(1,5-Dimethyl-1H-pyrazol-4-yl)-6-fluoro-7-(morpholin-4-yl)-3H-imidazo[4,5-b]pyridin-2-yl][4-(morpholin-4-yl)piperidin-1-yl]methanone]
139 | CN1CCC(NC(=O)c2nc3c(N4CCOCC4)nc(-c4cnn(C)c4)nc3[nH]2)CC1 [compound 47, N-(1-Methylpiperidin-4-yl)-2-(1-methyl-1H-pyrazol-4-yl)-6-(morpholin-4-yl)-9H-purine-8-carboxamide]
72 | Cc1nn(C)cc1-c1cc(N2CCOCC2)c2nc(C(=O)N3CCC(N4C[C@@H](C)O[C@@H](C)C4)CC3)n(C)c2n1 [compound 114, {4-[cis-2,6-Dimethylmorpholin-4-yl]piperidin-1-yl}[5-(1,3-dimethyl-1H-pyrazol-4-yl)-3-methyl-7-(morpholin-4-yl)-3H-imidazo[4,5-b]pyridin-2-yl]methanone]
61 | CCN(CCCN1CCOCC1)C(=O)c1nc2c(N3CCOCC3)nc(-c3cnn(C)c3)nc2[nH]1 [compound 69, N-ethyl-2-(1-methyl-1H-pyrazol-4-yl)-6-(morpholin-4-yl)-N-[3-(morpholin-4-yl)propyl]-9H-purine-8-carboxamide]
19 | O=C(c1nc2c(N3CCOCC3)cc(-c3cn[nH]c3)nc2[nH]1)N1CCC(N2CCOCC2)CC1 [compound 133, [4-(Morpholin-4-yl)piperidin-1-yl][7-(morpholin-4-yl)-5-(1H-pyrazol-4-yl)-3H-imidazo[4,5-b]pyridin-2-yl]methanone]
20 | Cn1cc(-c2nc(N3CCOCC3)c3nc(C(=O)N4CC[C@@H](NS(C)(=O)=O)C4)[nH]c3n2)cn1 [compound 38, N-[(3R)-1-{[2-(1-methyl-1H-pyrazol-4-yl)-6-(morpholin-4-yl)-9H-purin-8-yl]carbonyl}pyrrolidin-3-yl]methanesulfonamide]
21 | Cc1n[nH]cc1-c1nc(N2CCOCC2)c2nc(C(=O)N3CCC(N4CCOCC4)CC3)[nH]c2n1 [compound 66, [2-(3-Methyl-1H-pyrazol-4-yl)-6-(morpholin-4-yl)-9H-purin-8-yl][4-(morpholin-4-yl)piperidin-1-yl]methanone]

Source: patent US10174035B2, “6-morpholinyl-2-pyrazolyl-9H-purine derivatives and their use as PI3K inhibitors” (Daiichi Sankyo Company, Limited, priority 2015, dated 2019)
